Reference: patent US20250145715A1, “B7-H3 TARGETING FUSION PROTEINS AND METHODS OF USE THEREOF” (GT Biopharma, Inc., priority 2021, published 2025)

What was measured:
A549 lung cancer cells = assay: NK cell CD107a / IFNγ flow cytometry against A549; type: cell-based, human; settings: normal donor PBMCs, vs controls
Description: FIGS. 24A-24F illustrate that B7-H3 TriKE enhances NK cell function against lung tumor targets. FIG. 24A is a graph showing pooled analysis of proportion of NK cells from healthy donors expressing CD107a+ against A549(N=6) tumor targets. FIG. 24B is a graph showing pooled analysis of proportion of NK cells from healthy donors expressing IFNγ against A549(N=6) tumor targets. FIG. 24C is a graph showing pooled analysis of proportion of NK cells from healthy donors expressing CD107a+ against NCI-H322 (N=5) tumor targets. FIG. 24D is a graph showing pooled analysis of proportion of NK cells from healthy donors expressing IFNγ against NCI-H322 (N=5) tumor targets. FIG. 24E is a graph showing pooled proportion of NK cells from healthy donors (black bars) or lung cancer patients (white bars) expressing CD107a+ against NCI-H460 (N=7). FIG. 24F is a graph showing pooled proportion of NK cells from healthy donors (black bars) or lung cancer patients (white bars) expressing IFNγ against NCI-H460 (N=7). ** p<0.01, *** p<0.001, and **** p<0.0001.
ADCC was measured in a flow cytometry assay by evaluating degranulation via CD107a (lysosomal-associated membrane protein LAMP-1) and intracellular IFNγ production. […] Samples were washed and evaluated in an LSRII flow cytometer (BD Biosciences, San Jose, CA, USA). […]

[1] = tested on: MA-148-luc ovarian cancer cells; assay: Xenogeneic ovarian cancer MA-148-Luc model; type: in vivo, NSG mice
Description: FIGS. 32A-32F illustrate that cam1615B7-H3 TriKE is efficacious in subduing ovarian tumor progression in vivo. FIG. 32A is a diagram showing xenogeneic ovarian cancer MA-148-Luc model in female NSG mice (N=5 per treatment group). FIG. 32B is a graph showing bioluminescent imaging indicative of tumor progression, measured as Total flux radiance (p/s), over three weeks in the MA148 mouse model treated with enriched NK cells and noted treatments. FIG. 32C is a graph illustrating bioluminescent imaging results on day 21 data point. FIG. 32D is a photograph illustrating total flux radiance (p/s) on day 21. FIG. 32E is a scatter plot of CD56+CD3− NK cell numbers from peritoneal lavages for the rhIL-15 and cam1615B7-H3 TriKE treatment groups at D21. FIG. 32F is a scatter plot of CD16 media fluorescence intensity on NK cells from peritoneal lavages for the rhIL-15 and cam1615B7-H3 TriKE treatment groups at day 21. * p<0.05, ** p<0.01.
MA-148-Luc ovarian cancer cells were incorporated into a previously described NK cell xenogeneic mouse model system. NSG mice (NOD.Cg-Prkdcscid Il2rgtm1Wjl/SzJ, n=5/group) were injected IP with 2.0×10^5 MA-148-luc cells and then three days later conditioned with low-dose total body irradiation (225 cGy). The following day, all groups received highly enriched NK cells (PBMC magnetically CD3 and CD19 depleted), equivalent to 1 million NK cells/mouse, and were started on the drug regimen. A single course of treatment consisted of an IP injection of […] of TriKE or 5 μg rhIL-15 given every day of the week (Monday-Friday) for three weeks. MA-148-luc cells are a subline of MA-148 that have been transfected with a luciferase reporter gene, allowing for imaging of the mice each week to determine their bioluminescent activity and to monitor tumor progression. Briefly, mice were injected with 100 μL of 30 mg/mL luciferin substrate 10 min prior to imaging and then anesthetized via inhalation of isoflurane gas (25). Mice were then imaged using the Xenogen Ivis 100 imaging system and analyzed with Living Image 2.5 software (Xenogen Corporation, Alameda, CA, USA). At the end of the experiment (day 21), all the animals were sacrificed, and postmortem peritoneal lavages were performed to analyze human NK cell content by flow cytometry. Animal imaging and analysis was performed at the University of Minnesota Imaging Center. Mouse studies were carried after approval (protocol 1908-37330A) from the Institutional Animal Care and Use Committee (IACUC) at the University of Minnesota and in compliance with their guidelines.
As illustrated in FIGS. 32A-32F, cam1615B7-H3 TriKE mediates anti-tumor activity in vivo. Determination of in vivo activity is a critical step for translation. However, prior to evaluating the ability of the cam1615B7-H3 TriKE to induce function against tumor the potential for toxicity was assessed. To do this NSG mice were irradiated, engrafted with 1 million NK cells, treated with nothing, IL-15, or cam1615B7-H3 for three weeks, and weights were tracked over the course of 90 days post initial treatment. […] This is not surprising given the low toxicity profile of IL-15 and the safety profile of B7-H3. […] In this model, human NK cells and human high grade serous MA-148-luc cells are injected into the peritoneal cavity of NSG mice.

## cam1615B7-H3: second-generation TriKE: humanized camelid anti-CD16 VHH, human wild-type IL-15, anti-B7-H3 mAb 376.96 scFv; SEQ ID NO:1
A549 lung cancer cells
  NK cell activation against A549: significantly and robustly improved NK cell activation
[1]; IP 30 g of TriKE or 5 μg rhIL-15 Monday-Friday for three weeks, enriched NK cells, vs IL-15 treated or tumor only
  tumor progression (bioluminescence), longitudinal: lowest tumor progression
[1]; TriKE-treated vs IL-15-treated mice
  PD-1 expression: lower (but not significant) trend of expression
[1]; day 21, vs IL-15 treated mice
  CD16 expression on NK cells from peritoneal lavages: higher levels of CD16 expression than IL-15 treated mice
[1]; day 21, vs tumor only group
  tumor burden at day 21: significantly lower tumor burden than the tumor only group
[1]; treatment not curative within this model
  disease outcome of treated animals: stable disease
